According to patent publication EP1642577A1, “Derivatives of aryl (or heteroaryl) azolylcarbinols for the treatment of central neuropathic pain” (Laboratorios Dr. Esteve S.A., priority 2004, dated 2006):

System: Rats operated on lnfraorbital nerve
Experiment: Rats operated on infraorbital nerve (ligature): response/nociceptive threshold measured as aversive reactions
Type: in vivo
Description: Figures 1 and 2: Refering to example 7 they show the high efficacy of Cizolirtine in a model for the central neuropathic pain, the ligature of the infraorbital nerve.
Rats operated on lnfraorbital nerve
Rats were operated placing a ligature around the infraorbital nerve on one side. Following this operation the response threshold in (g) is reduced considerably if comparing the ipsilateral and contralateral side to the response pre ligature (Fig. 2) measured as aversive reactions. […] Saline produced no modification of the nociceptive threshold.

CN(C)CCOC(c1ccccc1)c1ccnn1C (racemic) [Cizolirtine, (±)-5-{α-[2-(dimethylamino)ethoxy]benzyl}-1-methyl-1H-pirazole]
nociceptive threshold (%) (i.p., 80 mg/kg, ipsilateral side, rats with ligature around the infraorbital nerve, Fig. 1): strong inducement of the nociceptive threshold | efficacy in a model for the central neuropathic pain, the ligature of the infraorbital nerve (legend of Figures 1 and 2, referring to example 7): high efficacy
